The values below come from PMC4300089, “Structure-Guided Design of Selective Epac1 and Epac2 Agonists” (PLoS Biology, 2015).

Each structure is given as a SMILES string.

In one test the target is T1, Epac1 (Homo sapiens, UniProt O95398).
T1 construct: made in house
T1 sequence (O95398 150-881 isoform O95398-3): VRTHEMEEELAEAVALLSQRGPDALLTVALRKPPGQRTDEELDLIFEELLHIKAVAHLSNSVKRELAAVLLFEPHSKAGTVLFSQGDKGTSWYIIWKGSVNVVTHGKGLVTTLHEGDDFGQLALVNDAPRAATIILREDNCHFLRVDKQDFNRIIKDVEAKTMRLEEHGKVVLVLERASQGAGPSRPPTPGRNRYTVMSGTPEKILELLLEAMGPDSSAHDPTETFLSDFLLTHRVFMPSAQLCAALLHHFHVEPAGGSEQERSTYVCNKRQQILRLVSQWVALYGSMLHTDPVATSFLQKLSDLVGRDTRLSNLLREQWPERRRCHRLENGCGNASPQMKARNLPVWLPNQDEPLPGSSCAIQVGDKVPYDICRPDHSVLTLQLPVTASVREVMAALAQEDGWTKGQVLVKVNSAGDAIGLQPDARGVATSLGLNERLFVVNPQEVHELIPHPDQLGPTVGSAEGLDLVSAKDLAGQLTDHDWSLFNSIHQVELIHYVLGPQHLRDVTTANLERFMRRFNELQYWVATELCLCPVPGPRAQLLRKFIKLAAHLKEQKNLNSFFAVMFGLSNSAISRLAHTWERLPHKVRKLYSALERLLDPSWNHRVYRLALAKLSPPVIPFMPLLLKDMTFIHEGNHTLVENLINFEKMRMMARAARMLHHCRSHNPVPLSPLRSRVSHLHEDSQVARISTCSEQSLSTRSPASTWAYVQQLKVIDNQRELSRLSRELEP
The test can be described thus: Epac activation assay, Epac1. Format: biochemical.

The next test concerns the target T2, Epac2 (Mus musculus, UniProt Q9EQZ6).
T2 construct: pBabe-Flag-Epac2 (Epac2, mus musculus, amino acids 1–993); expressed in transfected cells; host or cells: U2OS
T2 sequence (Q9EQZ6 1-993 isoform Q9EQZ6-3): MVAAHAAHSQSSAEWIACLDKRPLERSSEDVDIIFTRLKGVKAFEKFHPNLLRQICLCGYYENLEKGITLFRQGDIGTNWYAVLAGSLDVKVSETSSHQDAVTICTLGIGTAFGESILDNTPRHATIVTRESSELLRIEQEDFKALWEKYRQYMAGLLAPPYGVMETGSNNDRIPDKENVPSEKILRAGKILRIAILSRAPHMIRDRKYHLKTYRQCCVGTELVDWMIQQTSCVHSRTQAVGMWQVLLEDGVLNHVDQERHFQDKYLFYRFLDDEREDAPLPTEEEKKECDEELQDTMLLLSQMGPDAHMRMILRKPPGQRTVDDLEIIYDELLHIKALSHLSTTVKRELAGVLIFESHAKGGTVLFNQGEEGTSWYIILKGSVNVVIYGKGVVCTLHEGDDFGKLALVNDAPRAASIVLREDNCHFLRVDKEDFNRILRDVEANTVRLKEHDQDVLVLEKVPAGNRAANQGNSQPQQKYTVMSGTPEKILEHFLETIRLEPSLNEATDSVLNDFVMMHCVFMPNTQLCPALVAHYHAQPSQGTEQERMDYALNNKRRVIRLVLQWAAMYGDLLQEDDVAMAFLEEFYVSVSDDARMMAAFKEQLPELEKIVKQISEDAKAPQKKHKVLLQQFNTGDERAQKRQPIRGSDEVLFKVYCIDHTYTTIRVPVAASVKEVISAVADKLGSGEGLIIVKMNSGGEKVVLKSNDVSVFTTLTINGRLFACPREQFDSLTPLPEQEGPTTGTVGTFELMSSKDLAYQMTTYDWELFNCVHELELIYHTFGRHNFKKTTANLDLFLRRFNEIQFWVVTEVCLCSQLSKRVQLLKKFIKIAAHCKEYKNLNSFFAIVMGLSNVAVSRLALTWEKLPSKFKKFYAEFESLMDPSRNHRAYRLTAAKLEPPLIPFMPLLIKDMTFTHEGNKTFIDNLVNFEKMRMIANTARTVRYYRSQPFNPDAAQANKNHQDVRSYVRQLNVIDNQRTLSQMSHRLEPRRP
The test can be described thus: Cellular Epac activity: Rap•GTP levels in U2OS cells stably expressing Epac2. In kind it is cell-based, homo sapiens. Conditions: for rel. RapGTP: relative to induction with forskolin and IBMX, Fig. 6C. Here is the method:
Rap•GTP levels were determined by precipitating GTP-bound Rap specifically from cell lysates and subsequent western Blotting with an α-Rap antibody (Santa Cruz Biotechnology). To generate stable cell lines, U2OS cells were transfected with pBabe-Flag-Epac1 (Epac1, homo sapiens, amino acids 1–881) or pBabe-Flag-Epac2 (Epac2, mus musculus, amino acids 1–993), selected for Epac expression and maintained under selection with 2 mg/l puromycin. The cells were cultured according to standard protocols. The activity of PKA was determined by western blotting with a monoclonal α-VASP antibody (BD Transduction Laboratories). Blots were developed by enhanced chemiluminescence (ECL) and the use of X-ray films; for quantification films were scanned. The intensities of the Rap•GTP bands and the upper band of VASP (P-VASP) were determined for each condition in ImageJ and normalized to the stimulation with forskolin and IBMX for each blot.

In the case of `COC1C2OP(=O)(O)OCC2OC1n1c(Sc2ccc(Cl)cc2)nc2c(N)ncnc21` [D-007, 8-pCPT-2′-O-Me-cAMP, reference compound], the kobs was 4.6e-05 s⁻¹ on Epac1 (0.01 μM compound); 0.000133 s⁻¹ on Epac1 (0.05 μM compound); 0.000193 s⁻¹ at Epac1 (0.08 μM compound); 0.000213 s⁻¹ at Epac1 (0.1 μM compound); 0.000391 s⁻¹ at Epac1 (0.2 μM compound); 0.000569 s⁻¹ at Epac1 (0.3 μM compound). Besides, the kobs was 0.000728 s⁻¹ at Epac1 (0.4 μM compound); 0.000822 s⁻¹ at Epac1 (0.5 μM compound); 0.000999 s⁻¹ on Epac1 (0.6 μM compound); 0.00113 s⁻¹ on Epac1 (0.7 μM compound); 0.00123 s⁻¹ at Epac1 (0.8 μM compound); 0.00137 s⁻¹ at Epac1 (1 μM compound). For the same compound, the kobs is 0.00219 s⁻¹ on Epac1 (2 μM compound); 0.00266 s⁻¹ on Epac1 (3 μM compound); 0.00283 s⁻¹ at Epac1 (4 μM compound); 0.00293 s⁻¹ at Epac1 (5 μM compound); 0.00312 s⁻¹ on Epac1 (6 μM compound); 0.00321 s⁻¹ on Epac1 (7 μM compound). Moreover, the kobs at Epac1 (8 μM compound) worked out at 0.00328 s⁻¹; on Epac1 (20 μM compound), 0.00351 s⁻¹; on Epac1 (30 μM compound), 0.00364 s⁻¹; on Epac1 (40 μM compound), 0.00378 s⁻¹; on Epac1 (50 μM compound), 0.00348 s⁻¹; on Epac1 (60 μM compound) it was 0.00363 s⁻¹. Moreover, the kobs is 0.0036 s⁻¹ on Epac1 (70 μM compound), 0.00359 s⁻¹ on Epac1 (80 μM compound) and 0.00349 s⁻¹ at Epac1 (100 μM compound). The “potency relative to cAMP by activation potential (times more potently than cAMP)” value on Epac1 (Epac1) amounted to 100 times. On Epac2, the “activation of Epac2 in cells” value is “only minor effects”. For the same compound, the “rel. RapGTP” value at Epac2 worked out at 0.3431.
Regarding `Cc1ccc(CSc2nc3c(N)ncnc3n2[C@@H]2O[C@@H]3CO[P@](O)(=S)O[C@H]3[C@H]2O)cc1` [S-230, Sp-8-pMeBnT-cAMPS], the kobs was determined as 1e-05 s⁻¹ on Epac1 (0.3 μM compound); 1e-05 s⁻¹ at Epac1 (0.5 μM compound); 1.1e-05 s⁻¹ at Epac1 (0.8 μM compound); 1.4e-05 s⁻¹ at Epac1 (1 μM compound); 2.1e-05 s⁻¹ on Epac1 (2 μM compound); 2.6e-05 s⁻¹ on Epac1 (3 μM compound). Also, the kobs at Epac1 (4 μM compound) came out at 3e-05 s⁻¹; at Epac1 (5 μM compound), 3.3e-05 s⁻¹; on Epac1 (6 μM compound) it was 3.8e-05 s⁻¹; at Epac1 (7 μM compound), 4.1e-05 s⁻¹; at Epac1 (10 μM compound) it was 5.6e-05 s⁻¹; at Epac1 (20 μM compound), 9.4e-05 s⁻¹. In addition, the kobs on Epac1 (30 μM compound) was found to be 0.000115 s⁻¹; on Epac1 (40 μM compound), 0.000131 s⁻¹; on Epac1 (50 μM compound) it was 0.000148 s⁻¹; at Epac1 (60 μM compound), 0.000156 s⁻¹; at Epac1 (70 μM compound), 0.000164 s⁻¹; on Epac1 (80 μM compound), 0.00017 s⁻¹. Besides, the kobs at Epac1 (100 μM compound) amounted to 0.000198 s⁻¹; on Epac1 (200 μM compound), 0.000232 s⁻¹; on Epac1 (400 μM compound), 0.000232 s⁻¹; on Epac1 (600 μM compound), 0.000218 s⁻¹; on Epac1 (800 μM compound) it was 0.000186 s⁻¹.
Take `Nc1ncnc2c1nc(SCc1ccccc1)n2[C@@H]1O[C@@H]2CO[P@](O)(=S)O[C@H]2[C@H]1O` [S-220, Sp-8-BnT-cAMPS]: the kobs is 1.6e-05 s⁻¹ on Epac1 (0.01 μM compound); 1.5e-05 s⁻¹ at Epac1 (0.05 μM compound); 1.6e-05 s⁻¹ on Epac1 (0.08 μM compound); 1.7e-05 s⁻¹ on Epac1 (0.1 μM compound); 1.7e-05 s⁻¹ at Epac1 (0.2 μM compound); 2e-05 s⁻¹ on Epac1 (0.3 μM compound). Besides, the kobs amounted to 2.2e-05 s⁻¹ on Epac1 (0.5 μM compound); 2.5e-05 s⁻¹ at Epac1 (0.6 μM compound); 2.7e-05 s⁻¹ at Epac1 (0.7 μM compound); 2.8e-05 s⁻¹ on Epac1 (0.8 μM compound); 4.3e-05 s⁻¹ on Epac1 (1 μM compound); 5.8e-05 s⁻¹ on Epac1 (2 μM compound). Further, the kobs amounted to 7.9e-05 s⁻¹ on Epac1 (3 μM compound); 9.2e-05 s⁻¹ at Epac1 (4 μM compound); 0.000102 s⁻¹ on Epac1 (5 μM compound); 0.000128 s⁻¹ at Epac1 (6 μM compound); 0.000149 s⁻¹ at Epac1 (7 μM compound); 0.000153 s⁻¹ on Epac1 (8 μM compound). In addition, the kobs was 0.000213 s⁻¹ at Epac1 (10 μM compound); 0.000263 s⁻¹ at Epac1 (20 μM compound); 0.000312 s⁻¹ on Epac1 (30 μM compound); 0.00033 s⁻¹ at Epac1 (40 μM compound); 0.000328 s⁻¹ at Epac1 (50 μM compound); 0.000336 s⁻¹ at Epac1 (60 μM compound). The kobs at Epac1 (70 μM compound) came out at 0.000338 s⁻¹; on Epac1 (80 μM compound) it was 0.000331 s⁻¹. For the same compound, the AC50 (usually the midpoint of the concentration-response curve, whichever way the signal moves) on Epac1 (Epac1) is 13 µM. In addition, on Epac1 (Epac1), the “ability to reach half-maximal cAMP activity” value is “cannot activate Epac1 to the level of half-maximal cAMP-activity”. For the same compound, the Rel. kmax at Epac1 (Epac1, maximal activity relative to cAMP) is 0.3. Further, the “activation of Epac2 in cells” value at Epac2 was “efficiently activated”. Besides, the “rel. RapGTP” value on Epac2 is listed as 1.2025.
On to `Nc1ncnc2c1nc(Sc1ccc(Cl)cc1)n2[C@@H]1O[C@@H]2COP(=O)(O)O[C@H]2[C@H]1O` [L-026, 8-pCPT-cAMP], for which the “rel. RapGTP” value at Epac2 is 0.7828.
For the compound `Nc1ncnc2c1ncn2[C@@H]1O[C@@H]2COP(=O)(O)O[C@H]2[C@H]1O` [cAMP, reference compound], the kobs at Epac1 (0.01 μM compound) came to 1.1e-05 s⁻¹; on Epac1 (0.05 μM compound), 1.4e-05 s⁻¹; on Epac1 (0.08 μM compound) it was 2.5e-05 s⁻¹; at Epac1 (0.1 μM compound) it was 2.8e-05 s⁻¹; at Epac1 (0.3 μM compound), 3e-05 s⁻¹; at Epac1 (0.5 μM compound) it was 3.8e-05 s⁻¹. Also, the kobs at Epac1 (0.8 μM compound) came to 4.7e-05 s⁻¹; on Epac1 (1 μM compound), 5e-05 s⁻¹; at Epac1 (2 μM compound) it was 6.1e-05 s⁻¹; on Epac1 (3 μM compound), 9.3e-05 s⁻¹; on Epac1 (4 μM compound), 0.000116 s⁻¹; on Epac1 (5 μM compound) it was 0.000161 s⁻¹. In addition, the kobs on Epac1 (6 μM compound) was found to be 0.000161 s⁻¹; on Epac1 (7 μM compound), 0.000189 s⁻¹; on Epac1 (8 μM compound) it was 0.00021 s⁻¹; at Epac1 (10 μM compound) it was 0.000256 s⁻¹; on Epac1 (20 μM compound), 0.000421 s⁻¹; at Epac1 (30 μM compound) it was 0.000589 s⁻¹. The kobs came out at 0.000692 s⁻¹ on Epac1 (40 μM compound); 0.000746 s⁻¹ on Epac1 (50 μM compound); 0.000796 s⁻¹ at Epac1 (60 μM compound); 0.000848 s⁻¹ on Epac1 (70 μM compound); 0.000859 s⁻¹ at Epac1 (80 μM compound); 0.000937 s⁻¹ on Epac1 (100 μM compound). Moreover, the kobs on Epac1 (200 μM compound) was found to be 0.00112 s⁻¹; at Epac1 (400 μM compound), 0.0012 s⁻¹; at Epac1 (600 μM compound), 0.00116 s⁻¹; at Epac1 (800 μM compound), 0.00118 s⁻¹. On Epac1 (Epac1, assuming the most efficient activators shift the equilibrium fully), the “share of cAMP bound protein still in an inactive conformation” value is on record as “about 65%”.
